In patent publication US5807854A, “Pyrimidone derivatives with antifungal activity” (J. Uriah & Cia. S.A., priority 1995, dated 1998):
Values after ≈ are worked out from the molar mass of the structure shown.

Legend:
[1] = tested on: C. albicans; assay: In vitro activity by the agar dilution method, C. albicans; type: cell-based; details: Candida albicans; Kimmig's agar, 25° C., 48 h; read-out: MIC (minimal inhibitory concentration), C. albicans
Experimental: (§1) In vitro activity was evaluated against C. albicans, C. krusei, and Aspergillus fumigatus by the agar dilution method. Test strains were either clinical isolates or were obtained from ATCC. Stock solutions containing 800 μg/mL were prepared by solving the test products in 50% ethanol. The culture medium used was Kimmig's agar (K. A., E. Merck) supplemented with 0.5% glycerol. Plates containing serial dilutions (80 to 0.025 gg/imL) of the test products were inoculated with 10 μL of the fungal inocula, containing 10^5 colony forming units (cfu)/mL. Plates were incubated at 25° C. during 48 h for Candida sp. and during 5 days for Apergillus fumigatus. Following incubation MICs (minimal inhibitory concentrations) were determined.

[2] = tested on: C. krusei; assay: In vitro activity by the agar dilution method, C. krusei; type: cell-based; details: Pichia kudriavzevii; Kimmig's agar, 25° C., 48 h; read-out: MIC (minimal inhibitory concentration), C. krusei
Experimental: as §1

[3] = tested on: Aspergillus fumigatus; assay: In vitro activity by the agar dilution method, Aspergillus fumigatus; type: cell-based; details: 120 h, Kimmig's agar, 25° C., 5 days, read-out: MIC (minimal inhibitory concentration), Asp. fumigatus
Experimental: as §1

[4] = tested on: Candida albicans; assay: In Vivo Activity (Systemic Candidiasis); details: po, 576 h, orally at 1 mg/kg at 1, 4 and 24 h after infection, male mice, i.v. infection, read-out: protection on the day where all the animals in the control group had died
Experimental: Groups of 10 male mice were inoculated i.v. with 0.2 mL of a suspension containing (2-8)×10^7 cfu/mL of Candida albicans. Compounds were administered orally at 1 mg/kg (or at 10 mg/kg for those compounds marked with an asterisk) at times 1, 4 and 24 h after infection.

Row | Compound | MIC [1] | MIC [2] | MIC [3] | responders at 1 mg/kg [4]
1 | C[C@@H](n1cnc2cc(N(C)C)c(F)cc2c1=O)[C@](O)(Cn1cncn1)c1ccc(F)cc1F [Example 4, (1R,2R)-3-[2-(2,4-Difluorophenyl)-2-hydroxy-1-methyl-3-(1H-1,2,4-triazol-1-yl)propyl]-7-dimethylamino-6-fluoroquinazolin-4(3H)-one] | 0.15 µg/mL (≈ 0.327 µM) | 0.63 µg/mL (≈ 1.37 µM) | 10 µg/mL (≈ 21.8 µM) | –
2 | C[C@@H](n1cnc2ccccc2c1=O)[C@](O)(Cn1cncn1)c1ccc(F)cc1F [Example 5, (1R,2R)-3-[2-(2,4-Difluorophenyl)-2-hydroxy-1-methyl-3-(1H-1,2,4-triazol-1-yl)propyl]quinazolin-4(3H)-one] | 0.07 µg/mL (≈ 0.176 µM) | 5 µg/mL (≈ 12.6 µM) | 10 µg/mL (≈ 25.2 µM) | –
3 | C[C@@H](n1cnc2ccc(Cl)cc2c1=O)[C@](O)(Cn1cncn1)c1ccc(F)cc1F [Example 7, (1R,2R)-6-Chloro-3-[2-(2,4-difluorophenyl)-2-hydroxy-1-methyl-3-(1H-1,2,4-triazol-1-yl)propyl]quinazolin-4(3H)-one] | ≤ 0.03 µg/mL | 2.5 µg/mL (≈ 5.79 µM) | 40 µg/mL (≈ 92.6 µM) | 100%
4 | C[C@@H](n1cnc2c(Cl)cc(Cl)cc2c1=O)[C@](O)(Cn1cncn1)c1ccc(F)cc1F [Example 9, (1R,2R)-6,8Dichloro-3-[2-(2,4-difluorophenyl)-2-hydroxy-1-methyl-3-(1H-1,2,4-triazol-1-yl)propyl]quinazolin4(3H)-one] | – | – | – | 100%
5 | C[C@@H](n1cnc2ccc(Br)cc2c1=O)[C@](O)(Cn1cncn1)c1ccc(F)cc1F [Example 10, (1R,2R)-6-Bromo-3-[2-(2,4-difluorophenyl)-2-hydroxy-1-methyl-3-(1H-1,2,4-triazol-1-yl)propyl]quinazolin4(3H)-one] | – | – | – | 100%
6 | C[C@@H](n1cnc2cc(F)ccc2c1=O)[C@](O)(Cn1cncn1)c1ccc(F)cc1F [Example 12, (1R,2R)-3-[2-(2,4-Difluorophenyl)-2-hydroxy-1-methyl-3-(1H-1,2,4-triazol-1-yl)propyl]-7-fluoroquinazolin-4(3H)-one] | ≤ 0.03 µg/mL | 1.25 µg/mL (≈ 3.01 µM) | 1.25 µg/mL (≈ 3.01 µM) | –
7 | C[C@@H](n1cnc2cc(OCC(F)F)ccc2c1=O)[C@](O)(Cn1cncn1)c1ccc(F)cc1F [Example 19, (1R,2R)-7-(2,2-Difluoroethoxy)-3-[2-(2,4-difluorophenyl)-2-hydroxy-1-methyl-3-(1H-1,2,4-triazol-1-yl)propyl]quinazolin-4(3H)-one] | – | – | – | 100%
8 | Cc1ccc2ncn([C@H](C)[C@](O)(Cn3cncn3)c3ccc(F)cc3F)c(=O)c2c1 [Example 24, (1R,2R)-3-[2-(2,4-Difluorophenyl)-2-hydroxy-1-methyl-3-(1H-1,2,4-triazol-1-yl)propyl]-6-methylquinazolin-4(3H)-one] | ≤ 0.03 µg/mL | 2.5 µg/mL (≈ 6.08 µM) | 40 µg/mL (≈ 97.2 µM) | –
9 | C[C@@H](n1cnc2cc(-c3ccc(C(F)(F)F)cc3)sc2c1=O)[C@](O)(Cn1cncn1)c1ccc(F)cc1F [Example 33, (1R,2R)-3-[2-(2,4-Difluorophenyl)-2-hydroxy-1-methyl-3-(1H-1,2,4-triazol-1-yl)propyl]-6-[(4-trifluoromethyl)phenyl]thieno[3,2-d]pyrimidin-4(3H)-one] | – | – | – | 100%
10 | C[C@@H](n1cnc2cc(-c3ccc(OCC(F)(F)C(F)F)cc3)sc2c1=O)[C@](O)(Cn1cncn1)c1ccc(F)cc1F [Example 34, (1R,2R)-3-[2-(2,4-Difluorophenyl)-2-hydroxy-1-methyl-3-(1H-1,2,4-triazol-1-yl)propyl]-6-[4-(2,2,3,3-tetrafluoropropoxy)phenyl]thieno[3,2-d]pyrimidin-4(3H)-one] | – | – | – | 100%
11 | C[C@@H](n1cnc2cc3ccccc3cc2c1=O)[C@](O)(Cn1cncn1)c1ccc(F)cc1F [Example 38, (1R,2R)-3-[2-(2,4-Difluorophenyl)-2-hydroxy-1-methyl-3-(1H-1,2,4-triazol-1-yl)propyl]benzo[g]quinazolin4(3H)-one] | ≤ 0.03 µg/mL | 5 µg/mL (≈ 11.2 µM) | 20 µg/mL (≈ 44.7 µM) | –
12 | C[C@@H](n1cnc2cc(-n3cncn3)ccc2c1=O)[C@](O)(Cn1cncn1)c1ccc(F)cc1F [Example 48, (1R,2)-3-[2-(2,4-Difluorophenyl)-2-hydroxy-1-methyl-3-(1H-1,2,4-triazol-1-yl)propyl]-7-(1H-1,2,4-triazol-1-yl)quinazolin-4(3H)-one] | – | – | – | 100%
13 | C[C@@H](n1cnc2cc(S(C)(=O)=O)ccc2c1=O)[C@](O)(Cn1cncn1)c1ccc(F)cc1F [Example 51, (1R,2R)-3-[2-(2,4-Difluorophenyl)-2-hydroxy-1-methyl-3-(1H-1,2,4-triazol-1-yl)propyl]-7-(methylsulfonyl)quinazolin-4(3H)-one] | – | – | – | 100%
14 | C[C@@H](n1cnc2cc(Cl)ccc2c1=O)[C@](O)(Cn1cncn1)c1ccc(Cl)cc1Cl [Example 52, (1R,2R)-7-Chloro-3-[2-(2,4-dichlorophenyl)-2-hydroxy-1-methyl-3-(1H-1,2,4-triazol-1-yl)propyl]quinazolin-4(3H)-one] | – | – | – | 100%
15 | C[C@@H](n1cnc2cc(C(F)(F)F)ccc2c1=O)[C@](O)(Cn1cncn1)c1ccc(Cl)cc1Cl [Example 53, (1R,2R)-3-[2-(2,4-Dichlorophenyl)-2-hydroxy-1-methyl-3-(1H-1,2,4-triazol-1-yl)propyl]-7-trifluoromethylquinazolin-4(3H)-one] | – | – | – | 100%
16 | C[C@@H](n1cnc2cc(-c3ccc(Cl)cc3)sc2c1=O)[C@](O)(Cn1cncn1)c1ccc(Cl)cc1Cl [Example 54, (1R,2R)-6-(4-Chlorophenyl)-3-[2-(2,4-dichlorophenyl)-2-hydroxy-1-methyl-3-(1H-1,2,4-triazol-1-yl)propyl]thieno[3,2-d]pyrimidin-4(3H)-one] | – | – | – | 100%
17 | C[C@@H](n1cnc2cc(-c3ccc(C#N)cc3)sc2c1=O)[C@](O)(Cn1cncn1)c1ccc(Cl)cc1Cl [Example 55, (1R,2R)-4-[3-[2-(2,4-Dichlorophenyl)-2-hydroxy-1-methyl-3-(1H-1,2,4-triazol-1-yl)propyl]-4-oxo-3,4-dihydrothieno[3,2-d]pyrimidin-6-yl]benzonitrile] | – | – | – | 100%
18 | C[C@@H](n1cnc2cc(Sc3ccccc3)ccc2c1=O)[C@](O)(Cn1cncn1)c1ccc(F)cc1F [Example 60, (1R,2R)-3-[2-(2,4-Difluorophenyl)-2-hydroxy-1-methyl-3-(1H-1,2,4-triazol-1-yl)propyl]-7-(phenylthio)quinazolin-4(3H)-one] | ≤ 0.03 µg/mL | 0.31 µg/mL (≈ 0.613 µM) | 0.63 µg/mL (≈ 1.25 µM) | –
19 | C[C@@H](n1cnc2cc(S(=O)(=O)c3ccccc3)ccc2c1=O)[C@](O)(Cn1cncn1)c1ccc(F)cc1F [Example 61, (1R,2R)-3-[2-(2,4-Difluorophenyl)-2-hydroxy-1-methyl-3-(1H-1,2,4-triazol-1-yl)propyl]-7-phenylsulfonylquinazolin-4(3H)-one] | 0.31 µg/mL (≈ 0.577 µM) | 5 µg/mL (≈ 9.3 µM) | 5 µg/mL (≈ 9.3 µM) | –
20 | C[C@@H](n1cnc2cc(-c3ccc(C(=N)NO)cc3)sc2c1=O)[C@](O)(Cn1cncn1)c1ccc(F)cc1F [Example 62, (1R,2R)-3-[2-(2,4-Difluorophenyl)-2-hydroxy-1-methyl-3-(1H-1,2,4-triazol-1-yl)propyl]-6-[4-[(hydroxyamino)iminomethyl]phenyl]thieno[3,2-d]pyrimidin-4(3H)-one] | – | – | – | 100%
21 | C[C@@H](n1cnc2cc(-c3ccc(C(=N)NC#N)cc3)sc2c1=O)[C@](O)(Cn1cncn1)c1ccc(F)cc1F [Example 65, (1R,2R)-6-[4-[Cyanoamino(imino)methyl]phenyl]-3-[2-(2,4-difluorophenyl)-2-hydroxy-1-methyl-3-(1H-1,2,4-triazol-1-yl)propyl]thieno[3,2-d]pyrimidin-4(3H)-one] | – | – | – | 100%
22 | CC(=O)ONC(=N)c1ccc(-c2cc3ncn([C@H](C)[C@](O)(Cn4cncn4)c4ccc(F)cc4F)c(=O)c3s2)cc1 [Example 68] | 0.31 µg/mL (≈ 0.535 µM) | 10 µg/mL (≈ 17.3 µM) | 20 µg/mL (≈ 34.5 µM) | –
23 | C[C@@H](n1cnc2cc(-c3ccc(C4=NCCO4)cc3)sc2c1=O)[C@](O)(Cn1cncn1)c1ccc(F)cc1F [Example 69, (1R,2R)-3-[2-(2,4-Difluorophenyl)-2-hydroxy-1-methyl-3-(1-H-1,2,4-triazol-1-yl)propyl]-6-[4-(4,5-dihydrooxazol-2-yl)phenyl]thieno[3,2-d]pyrimidin-4(3H)-one] | – | – | – | 100%
24 | C[C@@H](n1cnc2cc(-c3ccc(C(=N)NCCN)cc3)sc2c1=O)[C@](O)(Cn1cncn1)c1ccc(F)cc1F [Example 70, (1R,2R)-6-[4-[(2-Aminoethylamino)(imino)methyl]phenyl]-3-[2-(2,4-difluorophenyl)-2-hydroxy-1-methyl-3-(1H-1,2,4-triazol-1-yl)propyl]thieno[3,2-d]pyrimidin-4(3H)-one] | 0.07 µg/mL (≈ 0.124 µM) | 10 µg/mL (≈ 17.7 µM) | 20 µg/mL (≈ 35.4 µM) | –
25 | C[C@@H](n1cnc2cc(NCc3ccccc3)ccc2c1=O)[C@](O)(Cn1cncn1)c1ccc(F)cc1F [Example 71, (1R,2R)-7-Benzylamino-3-[2-(2,4-difluorophenyl)-2-hydroxy-1-methyl-3-(1H-1,2,4-triazol-1-yl)propyl]quinazolin-4(3H)-one] | ≤ 0.03 µg/mL | 2.5 µg/mL (≈ 4.97 µM) | 5 µg/mL (≈ 9.95 µM) | –
